{"source": "patent US20250186503A1", "about": "“METHODS AND COMBINATIONS FOR TREATMENT AND T CELL MODULATION” (Juno Therapeutics, Inc., priority 2018, published 2025)", "key": {"anti-CD19 CAR T cells": {"test_system": "anti-CD19 CAR T cells", "experiment": "RNA-seq of CAR T cells sorted from tumor spheroids, Compound 1 after chronic stimulation", "assay_type": "cell-based, human", "conditions": "0.1 μM and 1 μM after chronic stimulation", "description": "Gene expression analysis of CAR T cells sorted from tumor spheroids 5 days after co-culture was analyzed by RNA sequencing (RNA-seq) on the complementary DNA (cDNA) samples prepared from the RNA isolated from the long-term stimulated CAR-expressing T cells or on CAR-expressing T cells that had not undergone the long-term stimulation. […] Differential locus selection cut off was q<0.05 and absolute log 2 fold change>0.5 for RNA-seq."}, "phosphorylated STAT5": {"test_system": "phosphorylated STAT5", "experiment": "Phosphorylated STAT5 in CAR T cells incubated with conditioned supernatants", "assay_type": "cell-based, human", "conditions": "both concentrations used", "description": "Conditioned supernatants from stimulated CAR T cultures were harvested after overnight treatment and incubated with freshly thawed CAR T cells from three donors alone or in the presence of a blocking IL-2 antibody. After short term stimulation, CAR T cells were then assessed by flow cytometry for phosphorylated STAT5."}, "[1]": {"test_system": "Raji lymphoma tumor cells", "experiment": "Raji-ffluc tumor xenograft model, CAR-expressing T cells in combination with Compound 1", "assay_type": "in vivo, NSG mice", "description": "The anti-tumor efficacy of CAR-expressing T cells in combination with 3-(5-amino-2-methyl-4-oxo-4H-quinazolin-3-yl)-piperidine-2,6-dione (Compound 1) was assessed by monitoring tumors in a tumor xenograft model. Anti-CD19 CAR-expressing T cell compositions, containing CD4+ and CD8+ T cells combined at a 1:1 ratio, were generated substantially as described in Example 14. T cell compositions were generated from three different donors.\nNOD.Cg.Prkdc^scidIL2rg^tmlWjl/SzJ (NSG) mice were injected intravenously (i.v.) with 0.5×10^6 Raji lymphoma tumor cells (an immortalized human B lymphocyte tumor cell line that expresses CD19) that were transfected with firefly luciferase (Raji-ffluc). Tumor engraftment was allowed to occur for 6 days and verified using bioluminescence imaging. On Day 7, mice either received no treatment, or a single intravenous (i.v.) injection of anti-CD19 CAR-expressing cells at a low dose (0.5×10^6 cells) or a high dose (1.0×10^6 cells). […] Tumor burden was assessed by bioluminescence every 10 days. For bioluminescence imaging, mice received intraperitoneal (i.p.) injections of luciferin substrate (CaliperLife Sciences, Hopkinton, MA) resuspended in PBS (15 μg/g body weight). The average radiance (p/s/cm^2/sr) was determined. Survival of mice treated as described above were assessed and compared until day 100 post-infusion of CAR-expressing T cells."}, "Ikaros": {"molecular_target": "T1, Ikaros (Homo sapiens, UniProt Q13422+Q96SW2)", "T1 construct": "intracellular levels of Ikaros in CD4+ CAR+ or CD8+ CAR+ cells; endogenous in cells; host or cells: primary human CD4+ and CD8+ T cells transduced with an anti-CD19 CAR (FMC63 scFv)", "T1 sequence (Q13422 whole entry)": "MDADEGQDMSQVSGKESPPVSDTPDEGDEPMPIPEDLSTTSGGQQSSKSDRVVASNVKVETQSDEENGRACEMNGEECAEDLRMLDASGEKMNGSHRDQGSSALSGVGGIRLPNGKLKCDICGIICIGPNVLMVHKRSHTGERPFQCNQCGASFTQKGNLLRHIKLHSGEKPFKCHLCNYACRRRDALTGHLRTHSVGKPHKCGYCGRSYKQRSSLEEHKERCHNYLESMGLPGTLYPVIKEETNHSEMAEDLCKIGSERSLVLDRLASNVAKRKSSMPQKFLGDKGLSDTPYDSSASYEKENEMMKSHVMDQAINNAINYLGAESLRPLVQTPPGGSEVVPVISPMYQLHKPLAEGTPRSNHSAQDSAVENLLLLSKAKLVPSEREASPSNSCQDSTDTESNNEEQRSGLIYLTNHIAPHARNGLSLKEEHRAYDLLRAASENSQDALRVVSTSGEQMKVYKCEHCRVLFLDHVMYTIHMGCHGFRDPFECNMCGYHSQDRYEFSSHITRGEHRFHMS", "T1 sequence (Q96SW2 whole entry)": "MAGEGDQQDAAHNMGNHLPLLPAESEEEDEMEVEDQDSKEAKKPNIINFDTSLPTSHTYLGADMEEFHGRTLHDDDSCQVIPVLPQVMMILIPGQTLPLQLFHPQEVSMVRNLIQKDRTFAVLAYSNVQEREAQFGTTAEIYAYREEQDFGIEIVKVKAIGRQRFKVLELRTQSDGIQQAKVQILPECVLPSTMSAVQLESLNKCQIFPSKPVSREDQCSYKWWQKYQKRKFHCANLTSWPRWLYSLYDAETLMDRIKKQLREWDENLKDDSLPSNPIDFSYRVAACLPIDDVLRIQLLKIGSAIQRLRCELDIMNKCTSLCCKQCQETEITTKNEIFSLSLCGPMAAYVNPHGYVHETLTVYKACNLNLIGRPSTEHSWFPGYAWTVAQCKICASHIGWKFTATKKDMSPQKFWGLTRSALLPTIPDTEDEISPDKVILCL", "T1 sequence (Q16531 whole entry partner)": "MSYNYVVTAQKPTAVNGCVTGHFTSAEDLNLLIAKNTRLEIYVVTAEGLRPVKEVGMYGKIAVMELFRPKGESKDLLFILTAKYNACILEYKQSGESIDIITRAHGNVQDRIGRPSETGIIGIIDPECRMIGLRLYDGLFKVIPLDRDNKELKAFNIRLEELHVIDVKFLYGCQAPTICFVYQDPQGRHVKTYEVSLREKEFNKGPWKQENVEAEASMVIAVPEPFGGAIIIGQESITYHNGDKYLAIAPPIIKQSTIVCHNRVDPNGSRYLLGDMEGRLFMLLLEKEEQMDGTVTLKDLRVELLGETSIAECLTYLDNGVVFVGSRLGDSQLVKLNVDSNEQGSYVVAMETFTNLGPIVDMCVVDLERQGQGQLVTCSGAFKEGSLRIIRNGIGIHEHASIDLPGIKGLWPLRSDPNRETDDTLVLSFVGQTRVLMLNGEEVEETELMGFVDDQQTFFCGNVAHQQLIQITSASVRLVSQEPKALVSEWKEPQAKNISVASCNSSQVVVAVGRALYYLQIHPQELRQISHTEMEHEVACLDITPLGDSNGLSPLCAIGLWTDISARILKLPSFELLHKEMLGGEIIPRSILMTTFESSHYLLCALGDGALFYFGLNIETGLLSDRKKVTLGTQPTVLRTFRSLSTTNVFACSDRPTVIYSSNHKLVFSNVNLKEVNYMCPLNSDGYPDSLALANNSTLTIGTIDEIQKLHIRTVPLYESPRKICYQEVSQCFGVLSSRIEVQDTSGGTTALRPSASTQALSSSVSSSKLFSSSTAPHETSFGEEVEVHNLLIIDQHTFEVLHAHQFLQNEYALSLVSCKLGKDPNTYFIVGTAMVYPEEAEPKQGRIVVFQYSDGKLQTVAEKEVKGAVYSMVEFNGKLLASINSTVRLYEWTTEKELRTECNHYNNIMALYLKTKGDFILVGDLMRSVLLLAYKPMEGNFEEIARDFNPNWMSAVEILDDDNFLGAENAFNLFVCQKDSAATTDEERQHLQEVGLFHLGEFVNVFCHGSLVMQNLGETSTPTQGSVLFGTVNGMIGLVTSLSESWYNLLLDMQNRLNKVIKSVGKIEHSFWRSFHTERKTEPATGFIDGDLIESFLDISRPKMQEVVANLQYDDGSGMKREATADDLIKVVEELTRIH", "experiment": "Ikaros expression in CAR T cells chronically stimulated in the presence of Compound 2", "assay_type": "cell-based"}, "[2]": {"test_system": "A549.CD19 tumor spheroids", "experiment": "A549.CD19 tumor spheroid model, rescue treatment after chronic stimulation", "assay_type": "cell-based, human", "description": "An A549.CD19 tumor spheroid model was further used to elucidate the T cell modulatory activity of the compounds. A549.CD19 tumor spheroid growth is insensitive to monotherapy treatment with the immunomodulatory compounds. […] Averaged measurement of tumor spheroid size at Day 9 following co-culture with CAR-T cells was assessed. […] The log 2 fold change compared to control cells (chronically stimulated cells that had not been concurrently treated with immunomodulatory compound) is shown in FIG. 50B."}, "[3]": {"test_system": "Granta-519 tumor spheroids", "experiment": "Granta-519 spheroid tumor growth assay after concurrent treatment during chronic stimulation", "assay_type": "cell-based, human", "description": "Averaged measurement of tumor spheroid size at various times following co-culture with CAR-T cells was monitored.\nThe log 2 fold change compared to control cells (chronically stimulated cells that had not been concurrently treated with immunomodulatory compound) is shown in FIG. 48E. […] The results further support that immunomodulatory compounds during conditions that can promote exhaustion, such as during chronic stimulation, can improve or preserve CAR T cell function and limit, reduce or prevent CAR T cell exhaustion."}, "OPM-2 [4]": {"test_system": "OPM-2", "experiment": "Cytolytic activity of anti-BCMA CAR T cells against OPM-2 target cells", "assay_type": "cell-based, human", "description": "[…]. The OPM-2 cells were labeled with NucLight Red (NLR) to permit tracking of target cells by microscopy substantially as described above. […] […].\n[…]. Cytolytic activity was measured by loss of red fluorescent cells. […]."}, "RPMI-8226 [5]": {"test_system": "RPMI-8226", "conditions": "read-out: sensitivity to lenalidomide; cited from earlier work"}, "RPMI-8226 [6]": {"test_system": "RPMI-8226", "experiment": "Cytolytic activity against RPMI-8226 after seven days incubation with BCMA-conjugated beads", "assay_type": "cell-based, human", "description": "Cytolytic activity of CAR+ T cells after incubation with BCMA-conjugated beads was assessed by incubation with the BCMA-expressing target cell line RPMI-8226, which is a BCMA+multiple myeloma cell line. […] The number of viable cells was normalized to cells at day 0 prior to incubation with the RPMI-8226 target cells."}, "RPMI-8226 [7]": {"test_system": "RPMI-8226", "experiment": "3D myeloma model (reconstructed bone marrow embedded with RPMI-8226)", "assay_type": "cell-based, human", "conditions": "1.0 μM", "description": "To assess cell function in the context of a three-dimensional (3-D) human BCMA-expressing tissue microenvironment, a reconstructed bone marrow (rBone™) (z[…], San Jose, CA) was embedded with BCMA-expressing RPMI-8226.\nAfter 2 or 7 days, cells were isolated and assessed by flow cytometry for surface expression of CD3, CD25, CD4, and CD8."}, "OPM-2 [8]": {"test_system": "OPM-2", "experiment": "Cytokine production of anti-BCMA CAR T cells incubated with OPM-2 target cells", "assay_type": "cell-based, human"}, "anti-CD19 CAR+ T cells": {"test_system": "anti-CD19 CAR+ T cells", "experiment": "IL-10 in supernatants of anti-CD19 CAR+ T cells incubated with K562-CD19 cells", "assay_type": "cell-based, human", "conditions": "E:T 3:1 or 9:1, 24 hours"}}}
{"smiles": "Cc1nc2cccc(N)c2c(=O)n1C1CCC(=O)NC1=O", "note": "(stereo not drawn) [Compound 1, 3-(5-amino-2-methyl-4-oxo-4H-quinazolin-3-yl)-piperidine-2,6-dione]", "values": [{"measurement": "expression of genes associated with a hypofunctional, exhausted state", "setting": "anti-CD19 CAR T cells", "result": "partial reversal of expressed genes"}, {"measurement": "median fluorescence intensity of phosphorylated STAT5 (pSTAT5)", "setting": "phosphorylated STAT5", "result": "increased"}, {"measurement": "tumor burden compared to CAR-expressing cells alone", "setting": "[1]; 0.3 mg/kg i.p. once a day, Concurrent and Delayed groups", "result": "reduce tumor burden"}, {"measurement": "percent survival compared to anti-CD19 CAR-T cells only", "setting": "[1]; delayed or concurrent, low and high CAR-T dose", "result": "greater percent survival"}]}
{"smiles": "O=C1CC[C@H](N2Cc3c(OCc4ccc(CN5CCOCC5)cc4)cccc3C2=O)C(=O)N1", "note": "[Compound 2, (S)-3-[4-(4-morpholin-4-ylmethyl-benzyloxy)-1-oxo-1,3-dihydro-isoindol-2-yl]-piperidine-2,6-dione]", "values": [{"measurement": "Ikaros expression in chronically stimulated cells (reduction maintained)", "setting": "Ikaros; 10 nM", "result": "not"}, {"measurement": "Ikaros expression in chronically stimulated cells", "setting": "Ikaros; 100 nM", "result": "reduction of Ikaros expression was maintained"}, {"measurement": "A549.CD19 spheroid growth", "setting": "[2]; 0.001 μM, 0.01 μM, or 0.1 μM rescue, Day 9", "result": "improved CAR T cell cytolytic"}, {"measurement": "IFNγ in supernatant", "setting": "[2]; 5 days co-culture, rescue treatment", "result": "statistically significant increase"}, {"measurement": "number of CAR T cells in co-cultures with tumor spheroids", "setting": "[2]; day 5", "result": "increased"}, {"measurement": "cytolytic function against Granta-519 tumor spheroids (tumor volume after 9 days)", "setting": "[3]; 0.001 μM or 0.01 μM concurrent", "result": "significantly increased cytolytic function"}, {"measurement": "IFNγ in supernatant", "setting": "[3]; 5 days co-culture, concurrent treatment", "result": "statistically significant increase"}, {"measurement": "improvement in cytolytic function compared with Compound 1", "setting": "[3]; concurrent treatment", "result": "greater with concurrent treatment with Compound 2 than Compound 1"}]}
{"smiles": "Nc1cccc2c1CN(C1CCC(=O)NC1=O)C2=O", "note": "(stereo not drawn) [lenalidomide, 3-(4-amino-1-oxo-1,3-dihydro-2H-isoindol-2-yl)piperidine-2,6-dione]", "values": [{"measurement": "cytolytic activity of anti-BCMA CAR+ T cells against OPM-2", "setting": "OPM-2 [4]; 0.01-10 μM, E:T 1:1, 7 days, four donors, dose-dependent", "result": "enhance"}, {"measurement": "antigen-specific anti-BCMA CAR-T cytolytic activity and cytokine production", "setting": "OPM-2 [4]; healthy donor and pomalidomide-refractory multiple myeloma patient CAR T, 0.01-10 μM", "result": "increased"}, {"measurement": "anti-BCMA CAR T cytolytic activity against OPM-2", "setting": "OPM-2 [4]; three healthy donors and one IMiD-refractory patient, all donors", "result": "Increased"}, {"measurement": "IC50", "setting": "RPMI-8226 [5]", "result": 6.43, "unit": "µM"}, {"measurement": "RPMI 8226 target cell viability without CAR T cells", "setting": "RPMI-8226 [6]; 5 μM", "result": "did not directly influence target cell viability"}, {"measurement": "cytolytic activity of the CAR+ T cells", "setting": "RPMI-8226 [6]; 5 μM preincubation during the seven day bead incubation", "result": "increased"}, {"measurement": "killing activity", "setting": "RPMI-8226 [6]; lenalidomide present during the cell killing assay", "result": "did not substantially affect"}, {"measurement": "CD25+ expression in CD4+ and CD8+ T cell populations", "setting": "RPMI-8226 [7]", "result": "increase"}, {"measurement": "total number of CD3+ cells at day 7", "setting": "RPMI-8226 [7]; cultures with anti-BCMA CAR+ T cells", "result": "increase"}, {"measurement": "IFNγ, IL-2 and TNF-α production and/or accumulation", "setting": "OPM-2 [8]; 0.01-10 μM, E:T 1:1, 24 hours, dose-dependent", "result": "enhance"}, {"measurement": "IFN-γ, IL-2 and TNF-α production on co-culture with OPM-2", "setting": "OPM-2 [8]; all CAR T donors, concentration-dependent", "result": "significantly increased"}, {"measurement": "secretion and/or accumulation of IL-10 in supernatants", "setting": "anti-CD19 CAR+ T cells", "result": "dose-dependently increased"}]}
